Results published in patent US20250288704A1, “CXCR4-LIGANDS FOR DIAGNOSTIC AND THERAPEUTIC USE AND PRECURSORS THEREOF” (priority 2021, published 2025).
Read-outs that look alike come from different tables or passages of the source. Non-standard residues stand in square brackets, D forms with d. Residues, ends and D or L forms follow the SMILES beside them. Groups on a side chain read outwards from the residue. *: point of attachment. DOTA = O=C(O)CN1CCN(CC(=O)O)CCN(CC(=O)*)CCN(CC(=O)O)CC1; dTyr(3-I) = N[C@H](Cc1ccc(O)c(I)c1)C(=O)O; 2Nal = N[C@@H](Cc1ccc2ccccc2c1)C(=O)O; dNMeOrn = CN[C@H](CCCN)C(=O)O; 4Amb = NCc1ccc(C(=O)O)cc1; 4Abz = Nc1ccc(C(=O)O)cc1; dDap = NC[C@@H](N)C(=O)O

Tests used:
CXCR4 = CXCR4 (Homo sapiens, UniProt P61073); assay: Determination of IC50: competition with 125I-Fc-131 on CXCR4-positive Jurkat cells; assay type: binding; design: CXCR4-positive Jurkat T lymphocyte cells were grown in Gibco's RPMI 1640 GlutaMAX medium; endogenous in cells; host or cells: Jurkat T lymphocyte cells (whole cells in suspension, 400.000 per tube);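 further: test compound at 10^−5 to 10^−11 M competed for 2 h at 8 °C with the radioligand on 400,000 cells per well, bound versus free activity measured by γ-counting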
[1] = Octanol/PBS partition coefficient (logD7.4); assay type: physicochemical; settings: n-octanol/PBS pH 7.4, radiolabeled compound
Procedure: The tubes were vortexed at maximum speed for 3 min to ensure equilibrium before centrifugation at 15.000×g for 5 min on a Biofuge 15 from Heraeus Holding GmbH (Osterode, Germany). An aliquot of 100 μL of each fraction was measured in the γ-counter and the log D7.4 calculated as follows: […]

[2] = system: CXCR4-expressing Chem_1 cells; assay: Determination of internalization, dual tracer with 125I-Fc-131; assay type: cell-based; settings: for Cell-bound [%] / Internalized [%]: of total cellular activity; for Internalization [% Fc-131] 2 h: 177Lu-labeled
Procedure: CXCR4-expressing Chem_1 cells were grown in DMEM-F12 medium supplemented with 10 vol % FBS, 1 vol % NEA, 1 vol % PenStrep and 1 vol % HEPES (1.00 M). Cells were maintained in a 5% CO2 atmosphere at 37° C.
For in vitro experiments, cells were harvested by removal of the medium and incubation of the cells with trypsine/EDTA (0.05%/0.02%; w/v) for 30 in at 37° C.
Each well (n=3 for every time point) was either treated with 25 μL DMEM-F12 (+5 wt % BSA) or 25 μL of an AMD3100 stock (1 mM in H2O) for blockage of the receptors.
The experiment was stopped by placing the well-plate on ice and removing the supernatant. The cells were washed with 250 μL cold HBSS and the both fractions for each well combined, comprising the amount of unbound radioligand.
The supernatant was removed, the cells washed with cold HBSS and the respective fractions combined to obtain the amount of surface-bound radioligand.
The cells were then incubated with 300 μL NaOH (1.00 M in H2O) for at least 30 at r.t. before the supernatant was removed. The well was washed with another 300 μL NaOH and the fractions combined that contain the amount of internalized radioligand.
The three different fractions were subjected to activity measurement in the γ-counter, measuring the activity of the radionuclide used for the labeling of the peptide under investigation first. […] Data was corrected for non-specific internalization and referred to the specific internalization of the standard ligand

[3] = unlabeled or cold (natGa/natLu) compound vs 125I-Fc-131, Jurkat cells, read-out: IC50

Chain of CXCR4 (P61073 whole entry): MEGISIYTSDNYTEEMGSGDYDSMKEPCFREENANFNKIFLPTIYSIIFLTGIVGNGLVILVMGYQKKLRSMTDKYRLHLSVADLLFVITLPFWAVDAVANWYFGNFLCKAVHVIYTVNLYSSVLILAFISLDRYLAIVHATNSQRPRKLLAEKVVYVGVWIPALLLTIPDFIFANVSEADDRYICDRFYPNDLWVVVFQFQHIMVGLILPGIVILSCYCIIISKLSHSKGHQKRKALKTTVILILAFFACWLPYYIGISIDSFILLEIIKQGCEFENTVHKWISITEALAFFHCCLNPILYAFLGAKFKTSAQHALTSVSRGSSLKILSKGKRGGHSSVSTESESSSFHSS

| IC50 (CXCR4; [3]) [nM] | Compound | IC50 (CXCR4) [nM] | logD7.4 [1] | Internalized in relation to 125I-Fc-131 [%] ([2]; 15 min) | Cell-bound [%] ([2]; 15 min) | Internalized [%] ([2]; 15 min) | Internalized in relation to 125I-Fc-131 [%] ([2]; 30 min) | Cell-bound [%] ([2]; 30 min) | Internalized [%] ([2]; 30 min) | Internalized in relation to 125I-Fc-131 [%] ([2]; 60 min) | Cell-bound [%] ([2]; 60 min) | Internalized [%] ([2]; 60 min) | Internalized in relation to 125I-Fc-131 [%] ([2]; 120 min) | Internalization [% Fc-131] 2 h [2] [% Fc-131] | Cell-bound [%] ([2]; 120 min) | Internalized [%] ([2]; 120 min) |
| --- | --- | --- | --- | --- | --- | --- | --- | --- | --- | --- | --- | --- | --- | --- | --- | --- |
| 2.95 ± 0.59 | C[C@@H](NC(=O)[C@@H](CCCNC(=N)N)NC(=O)[C@@H](CN)NC(=O)CN1CCN(CC(=O)O)CCN(CC(=O)O)CCN(CC(=O)O)CC1)C(=O)NCc1ccc(C(=O)NCCC[C@@H]2C(=O)N[C@@H](CCCNC(=N)N)C(=O)N[C@@H](Cc3ccc4ccccc4c3)C(=O)NCC(=O)N[C@H](Cc3ccc(O)cc3)C(=O)N2C)cc1 [CXCR4-DOTA-1 [Ga]] (cyclo([dY][dNMeOrn]([4Amb-dA-dR-dDap-DOTA])R[2Nal]G)) | – | – | – | – | – | – | – | – | – | – | – | – | – | – | – |
| 12.1 ± 2.42 | C[C@@H](NC(=O)[C@@H](CCCNC(=N)N)NC(=O)[C@@H](CN)NC(=O)CN1CCN(CC(=O)O)CCN(CC(=O)O)CCN(CC(=O)O)CC1)C(=O)NCc1ccc(C(=O)NCCC[C@@H]2C(=O)N[C@@H](CCCNC(=N)N)C(=O)N[C@@H](Cc3ccc4ccccc4c3)C(=O)NCC(=O)N[C@H](Cc3ccc(O)cc3)C(=O)N2C)cc1 [CXCR4-DOTA-1] (cyclo([dY][dNMeOrn]([4Amb-dA-dR-dDap-DOTA])R[2Nal]G)) | – | – | – | – | – | – | – | – | – | – | – | – | – | – | – |
| – | C[C@@H](NC(=O)[C@@H](CCCNC(=N)N)NC(=O)[C@@H](CN)NC(=O)CN1CCN(CC(=O)O)CCN(CC(=O)O)CCN(CC(=O)O)CC1)C(=O)NCc1ccc(C(=O)NCCC[C@@H]2C(=O)N[C@@H](CCCNC(=N)N)C(=O)N[C@@H](Cc3ccc4ccccc4c3)C(=O)NCC(=O)N[C@H](Cc3ccc(O)c(I)c3)C(=O)N2C)cc1 [CXCR4-DOTA-2] (cyclo([dTyr(3-I)][dNMeOrn]([4Amb-dA-dR-dDap-DOTA])R[2Nal]G)) | 7.03 ± 0.59 | – | – | – | – | – | – | – | – | – | – | – | – | – | – |
| – | C[C@@H](NC(=O)[C@@H](CCCNC(=N)N)NC(=O)[C@@H](CN)NC(=O)CN1CCN(CC(=O)O)CCN(CC(=O)O)CCN(CC(=O)O)CC1)C(=O)Nc1ccc(C(=O)NCCC[C@@H]2C(=O)N[C@@H](CCCNC(=N)N)C(=O)N[C@@H](Cc3ccc4ccccc4c3)C(=O)NCC(=O)N[C@H](Cc3ccc(O)cc3)C(=O)N2C)cc1 [CXCR4-DOTA-3 [Lu]] (cyclo([dY][dNMeOrn]([4Abz-dA-dR-dDap-DOTA])R[2Nal]G)) | – | −3.35 ± 0.19 (6) | 180 ± 32.6 | 6.46 ± 1.07 | 15.2 ± 0.99 | 259 ± 23.0 | 9.88 ± 0.54 | 22.2 ± 0.78 | 289 ± 22.4 | 13.4 ± 0.84 | 33.4 ± 0.87 | 366 ± 69.5 | 366 | 17.1 ± 2.69 | 38.4 ± 1.78 |
| – | C[C@@H](NC(=O)[C@@H](CCCNC(=N)N)NC(=O)[C@@H](CN)NC(=O)CN1CCN(CC(=O)O)CCN(CC(=O)O)CCN(CC(=O)O)CC1)C(=O)Nc1ccc(C(=O)NCCC[C@@H]2C(=O)N[C@@H](CCCNC(=N)N)C(=O)N[C@@H](Cc3ccc4ccccc4c3)C(=O)NCC(=O)N[C@H](Cc3ccc(O)c(I)c3)C(=O)N2C)cc1 [CXCR4-DOTA-4 [Lu]] (cyclo([dTyr(3-I)][dNMeOrn]([4Abz-dA-dR-dDap-DOTA])R[2Nal]G)) | – | −2.89 ± 0.10 (6) | 381 ± 16.2 | 16.0 ± 0.58 | 20.7 ± 0.59 | 588 ± 34.1 | 24.6 ± 1.38 | 30.6 ± 1.56 | 685 ± 50.1 | 32.4 ± 0.60 | 39.3 ± 0.52 | 675 ± 47.4 | 675 | 37.2 ± 2.16 | 53.23 ± 1.06 |
